According to patent US9593112B2, “Substituted pyrazolylpyrazole derivative and use of same as herbicide” (KYOYU AGRI CO., LTD., priority 2013, dated 2017):

Tests used:
Chenopodium album [1] = experiment: Farming soil treatment test; assay type: in vivo; settings: soil surface spray prior to weed growth, 30 days
Procedure: (§1) Field soil was filled into a 1/6000 are pot followed by seeding with Digitaria ciliaris, Chenopodium album and Amaranthus retroflexus and covering with soil.
(§2) Wettable powder of Target Compound (I) shown in Table 1 prepared in compliance with the preparation examples were diluted with water to the prescribed amount of chemical and uniformly sprayed onto each soil surface layer using 10 liters of sprayed water per are prior to weed growth following seeding.
(§3) After treating for 30 days in a glass greenhouse at an average atmospheric temperature of 30° C., the herbicidal efficacy thereof was investigated.
(§4) Evaluation of herbicidal efficacy was carried out in the same manner as the above-mentioned Test Example 1.

Digitaria ciliaris [2] = experiment: Farming soil treatment test; assay type: in vivo; settings: soil surface spray prior to weed growth, 30 days
Procedure: as §1, §2, §3, §4

Amaranthus retroflexus [3] = experiment: Farming soil treatment test; assay type: in vivo; settings: soil surface spray prior to weed growth, 30 days
Procedure: as §1, §2, §3, §4

Chenopodium album [4] = experiment: Weed foliar treatment test; assay type: in vivo; settings: foliar spray, 3 weeks
Procedure: (§5) Soil was filled into a 1/6000 are pot followed by seeding with Digitaria ciliaris, Chenopodium album and Amaranthus retroflexus, covering with soil, and cultivating in a glass greenhouse at an average atmospheric temperature of 25° C.
(§6) Wettable powder of Target Compound (I) shown in Table 1 prepared in compliance with the preparation examples were diluted with water to the prescribed amount of chemical and uniformly sprayed onto the weeds using 15 liters of sprayed water per are when Digitaria ciliaris had grown to the 1.0 to 2.0 leaf stage.
(§7) After treating for 3 weeks in a glass greenhouse at an average atmospheric temperature of 25° C., the herbicidal efficacy thereof was investigated.
as §4

Digitaria ciliaris [5] = experiment: Weed foliar treatment test; assay type: in vivo; settings: foliar spray at 1.0 to 2.0 leaf stage of Digitaria ciliaris, 3 weeks
Procedure: as §5, §6, §7, §4

Amaranthus retroflexus [6] = experiment: Weed foliar treatment test; assay type: in vivo; settings: foliar spray, 3 weeks
Procedure: as §5, §6, §7, §4

Monochoria vaginalis = experiment: Paddy herbicidal activity test; assay type: in vivo; settings: irrigated paddy pot, 30 days
Procedure: (§8) Rice paddy soil was filled into a 1/10000 are pot followed by the addition of suitable amounts of water and chemical fertilizer, kneading, seeding with Echinochloa crus-galli, Monochoria vaginalis and Scirpus juncoides and maintaining in an irrigated state at a water depth of 3 cm.
(§9) Wettable powder of Target Compound (I) shown in Table 1 prepared in compliance with the preparation examples were diluted with a suitable amount of water, rice plants in the 2.0 leaf stage were transplanted during 3.5 leaf stage of Echinochloa crus-galli, and treated by dropping in chemical in the prescribed amount per are using a pipette.
as §3
(§10) Evaluation of herbicidal efficacy was carried out by comparing growth inhibition rate (%) with an untreated group, while evaluation of phytotoxicity was carried out by comparing growth inhibition rate (%) with the state of a complete eradication group, and were evaluated at 11 levels indicated below.

Echinochloa crus-galli = experiment: Paddy herbicidal activity test; assay type: in vivo; settings: irrigated paddy pot, treated at 3.5 leaf stage of Echinochloa crus-galli, 30 days
Procedure: as §8, §9, §3, §10

Scirpus juncoides = experiment: Paddy herbicidal activity test; assay type: in vivo; settings: irrigated paddy pot, 30 days
Procedure: as §8, §9, §3, §10

Rice plants = experiment: Paddy herbicidal activity test, phytotoxicity to transplanted rice; assay type: in vivo; settings: rice transplanted at 2.0 leaf stage, 30 days
Procedure: as §8, §9, §3, §10

## C#CCNc1c(C#N)cnn1-c1nn2c(c1Cl)CCCC2 [4.85, 4.156]
Chenopodium album [1]; 5 g a.i./10 a
  herbicidal efficacy (growth inhibition level) Chenopodium album: 4 (4: 40% to less than 50%)
Chenopodium album [1]; 10 g a.i./10 a
  herbicidal efficacy (growth inhibition level) Chenopodium album: 5 (5: 50% to less than 60%)
Digitaria ciliaris [2]; 5 g a.i./10 a
  herbicidal efficacy (growth inhibition level) Digitaria ciliaris: 3 (3: 30% to less than 40%)
Digitaria ciliaris [2]; 10 g a.i./10 a
  herbicidal efficacy (growth inhibition level) Digitaria ciliaris: 4 (4: 40% to less than 50%)
Amaranthus retroflexus [3]; 5 g a.i./10 a
  herbicidal efficacy (growth inhibition level) Amaranthus retroflexus: 3 (3: 30% to less than 40%)
Amaranthus retroflexus [3]; 10 g a.i./10 a
  herbicidal efficacy (growth inhibition level) Amaranthus retroflexus: 6 (6: 60% to less than 70%)
Chenopodium album [4]; 5 g a.i./10 a
  herbicidal efficacy (growth inhibition level) Chenopodium album: 5 (5: 50% to less than 60%)
Chenopodium album [4]; 10 g a.i./10 a
  herbicidal efficacy (growth inhibition level) Chenopodium album: 6 (6: 60% to less than 70%)
Digitaria ciliaris [5]; 5 g a.i./10 a
  herbicidal efficacy (growth inhibition level) Digitaria ciliaris: 3 (3: 30% to less than 40%)
Digitaria ciliaris [5]; 10 g a.i./10 a
  herbicidal efficacy (growth inhibition level) Digitaria ciliaris: 5 (5: 50% to less than 60%)
Amaranthus retroflexus [6]; 5 g a.i./10 a
  herbicidal efficacy (growth inhibition level) Amaranthus retroflexus: 4 (4: 40% to less than 50%)
Amaranthus retroflexus [6]; 10 g a.i./10 a
  herbicidal efficacy (growth inhibition level) Amaranthus retroflexus: 6 (6: 60% to less than 70%)
Monochoria vaginalis; 1 g a.i./10 a
  herbicidal efficacy (growth inhibition level) Monochoria vaginalis: 1 (1: 10% to less than 20%)
Monochoria vaginalis; 5 g a.i./10 a
  herbicidal efficacy (growth inhibition level) Monochoria vaginalis: 3 (3: 30% to less than 40%)
Echinochloa crus-galli; 1 g a.i./10 a
  herbicidal efficacy (growth inhibition level) Echinochloa crus-galli: 2 (2: 20% to less than 30%)
Echinochloa crus-galli; 5 g a.i./10 a
  herbicidal efficacy (growth inhibition level) Echinochloa crus-galli: 3 (3: 30% to less than 40%)
Scirpus juncoides; 1 g a.i./10 a
  herbicidal efficacy (growth inhibition level) Scirpus juncoides: 0 (0 (exponent): 0% to less than 10% (growth inhibition rate))
Scirpus juncoides; 5 g a.i./10 a
  herbicidal efficacy (growth inhibition level) Scirpus juncoides: 1 (1: 10% to less than 20%)
Rice plants; 1 g a.i./10 a
  phytotoxicity (growth inhibition level) Rice plants: 2 (2: 20% to less than 30%)
Rice plants; 5 g a.i./10 a
  phytotoxicity (growth inhibition level) Rice plants: 2 (2: 20% to less than 30%)

## CC#CCNc1c(C#N)cnn1-c1nn2c(c1Cl)CCCC2 [4.131, 4.132]
Chenopodium album [1]; 5 g a.i./10 a
  herbicidal efficacy (growth inhibition level) Chenopodium album: 3 (3: 30% to less than 40%)
Chenopodium album [1]; 10 g a.i./10 a
  herbicidal efficacy (growth inhibition level) Chenopodium album: 4 (4: 40% to less than 50%)
Digitaria ciliaris [2]; 5 g a.i./10 a
  herbicidal efficacy (growth inhibition level) Digitaria ciliaris: 3 (3: 30% to less than 40%)
Digitaria ciliaris [2]; 10 g a.i./10 a
  herbicidal efficacy (growth inhibition level) Digitaria ciliaris: 4 (4: 40% to less than 50%)
Amaranthus retroflexus [3]; 5 g a.i./10 a
  herbicidal efficacy (growth inhibition level) Amaranthus retroflexus: 4 (4: 40% to less than 50%)
Amaranthus retroflexus [3]; 10 g a.i./10 a
  herbicidal efficacy (growth inhibition level) Amaranthus retroflexus: 5 (5: 50% to less than 60%)
Chenopodium album [4]; 5 g a.i./10 a
  herbicidal efficacy (growth inhibition level) Chenopodium album: 4 (4: 40% to less than 50%)
Chenopodium album [4]; 10 g a.i./10 a
  herbicidal efficacy (growth inhibition level) Chenopodium album: 5 (5: 50% to less than 60%)
Digitaria ciliaris [5]; 5 g a.i./10 a
  herbicidal efficacy (growth inhibition level) Digitaria ciliaris: 3 (3: 30% to less than 40%)
Digitaria ciliaris [5]; 10 g a.i./10 a
  herbicidal efficacy (growth inhibition level) Digitaria ciliaris: 4 (4: 40% to less than 50%)
Amaranthus retroflexus [6]; 5 g a.i./10 a
  herbicidal efficacy (growth inhibition level) Amaranthus retroflexus: 4 (4: 40% to less than 50%)
Amaranthus retroflexus [6]; 10 g a.i./10 a
  herbicidal efficacy (growth inhibition level) Amaranthus retroflexus: 6 (6: 60% to less than 70%)
Monochoria vaginalis; 1 g a.i./10 a
  herbicidal efficacy (growth inhibition level) Monochoria vaginalis: 0 (0 (exponent): 0% to less than 10% (growth inhibition rate))
Monochoria vaginalis; 5 g a.i./10 a
  herbicidal efficacy (growth inhibition level) Monochoria vaginalis: 1 (1: 10% to less than 20%)
Echinochloa crus-galli; 1 g a.i./10 a
  herbicidal efficacy (growth inhibition level) Echinochloa crus-galli: 3 (3: 30% to less than 40%)
Echinochloa crus-galli; 5 g a.i./10 a
  herbicidal efficacy (growth inhibition level) Echinochloa crus-galli: 4 (4: 40% to less than 50%)
Scirpus juncoides; 1 g a.i./10 a
  herbicidal efficacy (growth inhibition level) Scirpus juncoides: 1 (1: 10% to less than 20%)
Scirpus juncoides; 5 g a.i./10 a
  herbicidal efficacy (growth inhibition level) Scirpus juncoides: 3 (3: 30% to less than 40%)
Rice plants; 1 g a.i./10 a
  phytotoxicity (growth inhibition level) Rice plants: 1 (1: 10% to less than 20%)
Rice plants; 5 g a.i./10 a
  phytotoxicity (growth inhibition level) Rice plants: 1 (1: 10% to less than 20%)

## C#CCCNc1c(C#N)cnn1-c1nn2c(c1Cl)CCCC2 [Compound 1, 1-(3-chloro-4,5,6,7-tetrahydropyrazolo[1,5-a]pyridin-2-yl)-5-(but-3-ynylamino)pyrazole-4-carbonitrile]
Chenopodium album [1]; 5 g a.i./10 a
  herbicidal efficacy (growth inhibition level) Chenopodium album: 10 (10: 100%)
Chenopodium album [1]; 10 g a.i./10 a
  herbicidal efficacy (growth inhibition level) Chenopodium album: 10 (10: 100%)
Digitaria ciliaris [2]; 5 g a.i./10 a
  herbicidal efficacy (growth inhibition level) Digitaria ciliaris: 10 (10: 100%)
Digitaria ciliaris [2]; 10 g a.i./10 a
  herbicidal efficacy (growth inhibition level) Digitaria ciliaris: 10 (10: 100%)
Amaranthus retroflexus [3]; 5 g a.i./10 a
  herbicidal efficacy (growth inhibition level) Amaranthus retroflexus: 10 (10: 100%)
Amaranthus retroflexus [3]; 10 g a.i./10 a
  herbicidal efficacy (growth inhibition level) Amaranthus retroflexus: 10 (10: 100%)
Chenopodium album [4]; 5 g a.i./10 a
  herbicidal efficacy (growth inhibition level) Chenopodium album: 10 (10: 100%)
Chenopodium album [4]; 10 g a.i./10 a
  herbicidal efficacy (growth inhibition level) Chenopodium album: 10 (10: 100%)
Digitaria ciliaris [5]; 5 g a.i./10 a
  herbicidal efficacy (growth inhibition level) Digitaria ciliaris: 10 (10: 100%)
Digitaria ciliaris [5]; 10 g a.i./10 a
  herbicidal efficacy (growth inhibition level) Digitaria ciliaris: 10 (10: 100%)
Amaranthus retroflexus [6]; 5 g a.i./10 a
  herbicidal efficacy (growth inhibition level) Amaranthus retroflexus: 10 (10: 100%)
Amaranthus retroflexus [6]; 10 g a.i./10 a
  herbicidal efficacy (growth inhibition level) Amaranthus retroflexus: 10 (10: 100%)
Monochoria vaginalis; 1 g a.i./10 a
  herbicidal efficacy (growth inhibition level) Monochoria vaginalis: 9 (9: 90% to less than 100%)
Monochoria vaginalis; 5 g a.i./10 a
  herbicidal efficacy (growth inhibition level) Monochoria vaginalis: 10 (10: 100%)
Echinochloa crus-galli; 1 g a.i./10 a
  herbicidal efficacy (growth inhibition level) Echinochloa crus-galli: 9 (9: 90% to less than 100%)
Echinochloa crus-galli; 5 g a.i./10 a
  herbicidal efficacy (growth inhibition level) Echinochloa crus-galli: 10 (10: 100%)
Scirpus juncoides; 1 g a.i./10 a
  herbicidal efficacy (growth inhibition level) Scirpus juncoides: 8 (8: 80% to less than 90%)
Scirpus juncoides; 5 g a.i./10 a
  herbicidal efficacy (growth inhibition level) Scirpus juncoides: 10 (10: 100%)
Rice plants; 1 g a.i./10 a
  phytotoxicity (growth inhibition level) Rice plants: 0 (0 (exponent): 0% to less than 10% (growth inhibition rate))
Rice plants; 5 g a.i./10 a
  phytotoxicity (growth inhibition level) Rice plants: 1 (1: 10% to less than 20%)
other
  melting point: 130 to 131 °C

## C#CCN(C)c1c(C#N)cnn1-c1nn2c(c1Cl)CCCC2 [Compound 4.73, 1-(3-chloro-4,5,6,7-tetrahydropyrazolo[1,5-a]pyridin-2-yl)-5-[methyl(prop-2-ynyl)amino]pyrazole-4-carbonitrile]
Chenopodium album [1]; 5 g a.i./10 a
  herbicidal efficacy (growth inhibition level) Chenopodium album: 1 (1: 10% to less than 20%)
Chenopodium album [1]; 10 g a.i./10 a
  herbicidal efficacy (growth inhibition level) Chenopodium album: 2 (2: 20% to less than 30%)
Digitaria ciliaris [2]; 5 g a.i./10 a
  herbicidal efficacy (growth inhibition level) Digitaria ciliaris: 0 (0 (exponent): 0% to less than 10% (growth inhibition rate))
Digitaria ciliaris [2]; 10 g a.i./10 a
  herbicidal efficacy (growth inhibition level) Digitaria ciliaris: 1 (1: 10% to less than 20%)
Amaranthus retroflexus [3]; 5 g a.i./10 a
  herbicidal efficacy (growth inhibition level) Amaranthus retroflexus: 1 (1: 10% to less than 20%)
Amaranthus retroflexus [3]; 10 g a.i./10 a
  herbicidal efficacy (growth inhibition level) Amaranthus retroflexus: 2 (2: 20% to less than 30%)
Chenopodium album [4]; 5 g a.i./10 a
  herbicidal efficacy (growth inhibition level) Chenopodium album: 2 (2: 20% to less than 30%)
Chenopodium album [4]; 10 g a.i./10 a
  herbicidal efficacy (growth inhibition level) Chenopodium album: 3 (3: 30% to less than 40%)
Digitaria ciliaris [5]; 5 g a.i./10 a
  herbicidal efficacy (growth inhibition level) Digitaria ciliaris: 1 (1: 10% to less than 20%)
Digitaria ciliaris [5]; 10 g a.i./10 a
  herbicidal efficacy (growth inhibition level) Digitaria ciliaris: 2 (2: 20% to less than 30%)
Amaranthus retroflexus [6]; 5 g a.i./10 a
  herbicidal efficacy (growth inhibition level) Amaranthus retroflexus: 3 (3: 30% to less than 40%)
Amaranthus retroflexus [6]; 10 g a.i./10 a
  herbicidal efficacy (growth inhibition level) Amaranthus retroflexus: 3 (3: 30% to less than 40%)
Monochoria vaginalis; 1 g a.i./10 a
  herbicidal efficacy (growth inhibition level) Monochoria vaginalis: 3 (3: 30% to less than 40%)
Monochoria vaginalis; 5 g a.i./10 a
  herbicidal efficacy (growth inhibition level) Monochoria vaginalis: 4 (4: 40% to less than 50%)
Echinochloa crus-galli; 1 g a.i./10 a
  herbicidal efficacy (growth inhibition level) Echinochloa crus-galli: 2 (2: 20% to less than 30%)
Echinochloa crus-galli; 5 g a.i./10 a
  herbicidal efficacy (growth inhibition level) Echinochloa crus-galli: 4 (4: 40% to less than 50%)
Scirpus juncoides; 1 g a.i./10 a
  herbicidal efficacy (growth inhibition level) Scirpus juncoides: 0 (0 (exponent): 0% to less than 10% (growth inhibition rate))
Scirpus juncoides; 5 g a.i./10 a
  herbicidal efficacy (growth inhibition level) Scirpus juncoides: 1 (1: 10% to less than 20%)
Rice plants; 1 g a.i./10 a
  phytotoxicity (growth inhibition level) Rice plants: 0 (0 (exponent): 0% to less than 10% (growth inhibition rate))
Rice plants; 5 g a.i./10 a
  phytotoxicity (growth inhibition level) Rice plants: 1 (1: 10% to less than 20%)
